# “Also recorded” adds a separate entry of the source.
# Assays:
# [1] = test system: resistant B. subtilis strains (M1, M2); assay: MIC toward L-4-oxalysine-resistant strains (M1, M2); assay type: cell-based; settings: for effect of M1 and M2 mutations on susceptibility: M1 and M2 strains
# B. subtilis 168 (1A1) = assay: Antibacterial activity assay (growth curves, MIC) in chemically defined minimal media; assay type: cell-based; settings: for complete inhibition of bacterial growth for 24 h: minimal medium; for bacterial growth in minimal medium: 100 μM compound, chemically-defined minimal medium
# [2] = test system: lysC lysine riboswitch upstream of lacZ reporter gene; assay: In vivo reporter gene (β-galactosidase) expression assay, wild-type lysC riboswitch; assay type: cell-based, B. subtilis; settings: for repression of β-galactosidase reporter gene expression controlled by lysC riboswitch: 3 h growth in presence of compound (5 mM, FIG. 3c); for reporter gene expression at the compound's MIC: at respective MICs
# [3] = test system: 179-nucleotide receptor domain (179 lysC) of the lysC lysine riboswitch; assay: In-line probing assay, ligand binding to 179 lysC; set-up: species or system B. subtilis; settings: for binding to 179 lysC / lysine aptamer (in words): in vitro
# [4] = test system: lysC lysine riboswitch upstream of lacZ reporter gene; settings: Sudarsan 2006; cited from earlier work
# [5] = test system: 179-nucleotide receptor domain (179 lysC) of the lysC lysine riboswitch; settings: Sudarsan 2006; cited from earlier work
# [6] = test system: lysC riboswitch with the M1 or M2 mutation upstream of β-galactosidase reporter; assay: Reporter gene (β-galactosidase) expression assay, M1 or M2 riboswitch constructs; assay type: cell-based, B. subtilis; settings: high compound concentrations (lysine as high as 5 mM)
# [7] = test system: B. subtilis 168 strain 1A1 (WT); assay: Sporulation assay, WT strain; settings: for % Viable spore formation, WT: spores after heat shock relative to CFU before heat shock
# B. subtilis M2 strain = assay: Sporulation assay, M2 strain; settings: 2 mM analog; spores after heat shock relative to CFU before heat shock
# [8] = test system: B. subtilis lysine auxotroph strain 1A40; assay type: cell-based; settings: 1 mM compound, 3 h, minimal media
# B. cereus = assay type: cell-based, Bacillus cereus; settings: minimal medium
compound,measurement,setting,value
"NC/C=C/CC(N)C(=O)O (racemic) [Compound 4, DL-trans-2,6-diamino-4-hexenoic acid]",effect of M1 and M2 mutations on susceptibility,[1],confer resistance
same,complete inhibition of bacterial growth for 24 h,B. subtilis 168 (1A1),completely inhibit bacterial growth
same,repression of β-galactosidase reporter gene expression controlled by lysC riboswitch,[2],significantly repress
same,binding to 179 lysC / lysine aptamer (in words),[3],bind well
"NCCSC[C@H](N)C(=O)O [AEC, L-aminoethylcysteine]",repression of lysC-regulated reporter gene (previous report),[4],represses the expression
same,binding to the lysC riboswitch (previous report),[5],bind well; also recorded: binds to the lysC riboswitch
NCC(O)CC[C@H](N)C(=O)O (stereo partly shown) [5-hydroxylysine],binding to the lysC riboswitch (previous report),[5],fails to bind
"NCCOC[C@H](N)C(=O)O [Compound 2, L-4-oxalysine]",β-galactosidase expression from M1 or M2 constructs,[6],fully active β-galactosidase is still expressed
same,increase of MIC in resistant colonies,"[1]; 24 colonies isolated by serial passage, versus wild type",at least 9 fold
same,complete inhibition of bacterial growth for 24 h,B. subtilis 168 (1A1),completely inhibit bacterial growth
same,formation of viable spores (in words),[7],inhibit the formation of viable spores
same,"% Viable spore formation, WT",[7]; 0.2 mM analog,71%
same,"% Viable spore formation, WT",[7]; 2 mM analog,6%
same,repression of β-galactosidase reporter gene expression controlled by lysC riboswitch,[2],significantly repress
same,reporter gene expression at the compound's MIC,[2],completely repress
same,"% Viable spore formation, M2",B. subtilis M2 strain,65%
same,binding to 179 lysC / lysine aptamer (in words),[3],bind well
"CC(=O)N[C@@H](CCCCN)C(=O)O [Compound 5, L-N^2-acetyllysine]",binding to 179 lysC / lysine aptamer (in words),[3],does not tolerate modifications at N2
"CN[C@@H](CCCCN)C(=O)O [Compound 11, L-N^2-methyllysine]",binding to 179 lysC / lysine aptamer (in words),[3],does not tolerate modifications at N2
"NCCCC[C@H](N)C(=O)O [lysine, L-lysine]",growth of lysine auxotroph strain 1A40,[8],support growth
same,repression of β-galactosidase reporter gene expression controlled by lysC riboswitch,[2],strongly repressed
same,Kd,[3],360 nM
"NCC(=O)CCC(N)C(=O)O (racemic) [Compound 8, DL-5-oxolysine]",bacterial growth in minimal medium,B. subtilis 168 (1A1),modest level of growth inhibition activity
same,formation of viable spores (in words),[7],do not
same,"% Viable spore formation, WT",[7]; 2 mM analog,47%
same,repression of β-galactosidase reporter gene expression controlled by lysC riboswitch,[2],do not repress expression
same,"% Viable spore formation, M2",B. subtilis M2 strain,9%
same,binding to 179 lysC / lysine aptamer (in words),[3],poor affinity; also recorded: rejected by the lysine aptamer
"CC(=N)NCCCC[C@H](N)C(=O)O [Compound 7, L-N^6-1-iminoethyllysine]",bacterial growth in minimal medium,B. subtilis 168 (1A1),fails to inhibit cell growth
same,repression of β-galactosidase reporter gene expression controlled by lysC riboswitch,[2],does not repress
same,binding to 179 lysC / lysine aptamer (in words),[3],strong binding
"C[N+](C)(C)CCCC[C@H](N)C(=O)O [Compound 12, L-N^6-trimethyllysine]",binding to 179 lysC / lysine aptamer (in words),[3],no binding is observed
"Nc1cc(C[C@H](N)C(=O)O)ccc1O [Compound 9, L-3-aminotyrosine]",bacterial growth in minimal medium,B. subtilis 168 (1A1),modest level of growth inhibition activity
same,formation of viable spores (in words),[7],do not
same,"% Viable spore formation, WT",[7]; 2 mM analog,75%
same,repression of β-galactosidase reporter gene expression controlled by lysC riboswitch,[2],do not repress expression
same,"% Viable spore formation, M2",B. subtilis M2 strain,75%
same,binding to 179 lysC / lysine aptamer (in words),[3],poor affinities; also recorded: rejected by the lysine aptamer
"N=C(N)NCCCC[C@H](N)C(=O)O [Compound 3, L-homoarginine]",growth of lysine auxotroph strain 1A40,[8],supports the growth; also recorded: support growth
same,binding to 179 lysC / lysine aptamer (in words),[3],binds strongly
"Nc1ccccc1C(=O)C[C@H](N)C(=O)O [Compound 10, L-2-amino-3-(2-aminobenzoyl)-propionic acid]",binding to 179 lysC / lysine aptamer (in words),[3],poor affinities
"NCCS(=O)(=O)C[C@H](N)C(=O)O [Compound 1, L-3-[(2-aminoethyl)-sulfonyl]-alanine]",β-galactosidase expression from M1 or M2 constructs,[6],fully active β-galactosidase is still expressed
same,effect of M1 and M2 mutations on susceptibility,[1],confer resistance
same,complete inhibition of bacterial growth for 24 h,B. subtilis 168 (1A1),completely inhibit bacterial growth
same,growth inhibition of B. cereus relative to B. subtilis,B. cereus,13 fold
same,formation of viable spores (in words),[7],inhibit the formation of viable spores
same,"% Viable spore formation, WT",[7]; 0.2 mM analog,7%
same,"% Viable spore formation, WT",[7]; 2 mM analog,0%
same,repression of β-galactosidase reporter gene expression controlled by lysC riboswitch,[2],significantly repress
same,reporter gene expression at the compound's MIC,[2],completely repress
same,"% Viable spore formation, M2",B. subtilis M2 strain,17%
same,binding to 179 lysC / lysine aptamer (in words),[3],bind well

# Reference: patent publication US20100137440A1, “LYSINE RIBOSWITCHES, STRUCTURE-BASED COMPOUND DESIGN WITH LYSINE RIBOSWITCHES, AND METHODS AND COMPOSITIONS FOR USE OF AND WITH LYSINE RIBOSWITCHES” (Yale University, priority 2006, published 2010)
